Measured values published in patent US12448358B2, “Inhibitors of protein arginine deiminase 1 and methods of preparation and use thereof” (University of Massachusetts, priority 2019, dated 2025).

Biological target: T1, PAD1 (Mus musculus, UniProt Q9Z185)
T1 construct: endogenously expressed cellular PAD1 in mouse zygotes; endogenous in cells; host or cells: ICR mouse zygotes / 4-cell embryos from in vitro fertilization
T1 sequence (Q9Z185 1-662): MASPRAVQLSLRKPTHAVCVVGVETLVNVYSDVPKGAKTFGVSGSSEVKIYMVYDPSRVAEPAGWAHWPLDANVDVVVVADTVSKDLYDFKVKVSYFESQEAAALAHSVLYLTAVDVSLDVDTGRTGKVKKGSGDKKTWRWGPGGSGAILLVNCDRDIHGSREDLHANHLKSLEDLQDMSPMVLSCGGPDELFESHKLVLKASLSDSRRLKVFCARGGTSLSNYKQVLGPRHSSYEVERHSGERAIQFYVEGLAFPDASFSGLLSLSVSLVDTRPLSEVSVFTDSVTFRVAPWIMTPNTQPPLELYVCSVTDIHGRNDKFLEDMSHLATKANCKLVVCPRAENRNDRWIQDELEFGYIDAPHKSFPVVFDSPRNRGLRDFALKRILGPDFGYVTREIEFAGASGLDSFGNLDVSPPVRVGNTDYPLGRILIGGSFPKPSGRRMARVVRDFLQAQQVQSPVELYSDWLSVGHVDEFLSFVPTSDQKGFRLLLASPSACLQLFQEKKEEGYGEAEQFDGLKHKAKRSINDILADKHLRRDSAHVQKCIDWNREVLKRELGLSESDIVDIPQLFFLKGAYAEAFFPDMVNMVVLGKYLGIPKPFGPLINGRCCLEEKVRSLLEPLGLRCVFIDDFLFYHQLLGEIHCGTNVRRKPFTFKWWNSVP
Experiment: Histone H3 citrullination in mouse embryos (immunofluorescence, confocal microscopy)
Format: cell-based
Details: mouse embryos at the 4-cell stage, 100 μM inhibitor
Description: In Vitro Fertilization. Female ICR mice (4-6 weeks) were injected intraperitoneally with 10 international units (IU) of pregnant mare serum gonadotropin (PMSG) and after 46 h, 10 IU of human chorionicgonadotropin (hCG). After 16 h, cumulus masses were released from oviducts into HEPES-buffered HTF culture medium (HTF) (InVitro Care, Frederick, MD). Cauda epididymal mouse spermatozoa were released and placed in drops of HTF culture medium (InVitro Care). Then the sperm suspensions were added to the cumulus mass drops with a final concentration of approximately 1-3×10^5/mL. Zygotes were collected and transferred to KSOM medium containing 100 μM PAD1 inhibitor or equal volume of DMSO as a control. Then 4-cell and blastocyst stage embryos were collected after 48 and 100 h of culture, respectively.
Immunofluorescent and Confocal Microscopy. Embryos were fixed in 4% paraformaldehyde in PBS (pH 7.4) for 30 min and then permeabilized in 0.5% Triton X-100 for 30 min at room temperature. After blocking in 1% BSA/PBS at room temperature for 1 h, samples were incubated with anti-H3Cit2/8/17 antibody (Catalogue no. ab77164, Abcam) (1:100) at 4° C. for 12 h. After five washes, samples were incubated with FITC-conjugated secondary antibody for 1 h at room temperature. Nuclei were counterstained with DAPI for 5 min. […]

Row | SMILES | Inhibition of histone H3 citrullination in embryos
1 | N=C(CF)NCCC[C@H](NC(=O)c1cc(I)c(F)c(I)c1O)c1nc2ccccc2[nH]1 [Compound 19] | dramatically inhibit histone H3 citrullination
2 | N=C(CF)NCCC[C@H](NC(=O)c1cc(I)cc(I)c1O)c1nc2ccccc2[nH]1 [Compound 1] | dramatically inhibit histone H3 citrullination
